{"source": "patent US9649313B2", "about": "“Use of ITK inhibitors for the treatment of cancer” (The University of North Carolina at Chapel Hill, priority 2012, dated 2017)", "key": {"[1]": {"test_system": "VMM 39 (ITKHI) xenograft tumors", "assay": "melanoma xenograft mouse model", "assay_type": "in vivo, nude mice", "details": "VMM 39 xenograft; 15 mg per kg in food", "description": "(§1) FIG. 6A-6F. Effects of BI 10N inhibitor on growth of melanoma xenografts in vivo. FIG. 6A-6C) Cell lines RPMI 8322 (ITKHI), VMM 39 (ITKHI), and A375 (ITKINT) were grown as described previously, suspended in matrigel and injected into the flanks of nude mice as described in the Materials and Methods section. The mice received either BI 10N at a concentration of 15 mpk or no treatment. Mice were then followed to assess the effect of the treatments on tumor progression. FIG. 6D-6F) Effect of BI 10N (15mpk) on tumor growth (mean and standard error of mean) in A375, RPMI 8322, and VMM 39 melanoma xenografts. […] Samples sizes are indicated in parentheses.\n(§2) Nude athymic animals were acquired through the UNC Animal Studies Core and are similar to Jackson Labs (strain 000819). Mice were aged to 10 weeks and inoculated in the hind flank with 500K cells suspended in a 50/50 solution of Hank's Solution plus 2% FBS and matrigel (BD cat#356234). Once weekly caliper measurements of the length and width of the tumors were recorded; volume was then calculated using the formula ((L^2)×W)/2. Treatment began when a tumor reached an approximate size of 60 mm^3. Mice received compounds orally via admixture with standard rodent diet (Research Diets, Inc; New Brunswick, N.J.) or the same diet for non-treated mice as per MP1U (mouse phase I unit) protocol (Roberts et al., 2012 Clin Cancer Res 18(19):5290-5303). Tissues were cut in half and either flash frozen and then stored at −80 or formalin-fixed/paraffin embedded."}, "[2]": {"test_system": "A375 (ITKINT) xenograft tumors", "assay": "melanoma xenograft mouse model", "assay_type": "in vivo, nude mice", "details": "15 mg per kg in food", "description": "as §1, §2"}, "[3]": {"test_system": "RPMI 8322 (ITKHI) xenograft tumors", "assay": "melanoma xenograft mouse model", "assay_type": "in vivo, nude mice", "details": "RPMI 8322 xenograft; 15 mg per kg in food", "description": "as §1, §2"}, "ITK": {"biological_target": "T1, ITK (Homo sapiens, UniProt Q08881)", "T1 construct": "purchased Carna Biosciences", "T1 sequence (Q08881 1-620)": "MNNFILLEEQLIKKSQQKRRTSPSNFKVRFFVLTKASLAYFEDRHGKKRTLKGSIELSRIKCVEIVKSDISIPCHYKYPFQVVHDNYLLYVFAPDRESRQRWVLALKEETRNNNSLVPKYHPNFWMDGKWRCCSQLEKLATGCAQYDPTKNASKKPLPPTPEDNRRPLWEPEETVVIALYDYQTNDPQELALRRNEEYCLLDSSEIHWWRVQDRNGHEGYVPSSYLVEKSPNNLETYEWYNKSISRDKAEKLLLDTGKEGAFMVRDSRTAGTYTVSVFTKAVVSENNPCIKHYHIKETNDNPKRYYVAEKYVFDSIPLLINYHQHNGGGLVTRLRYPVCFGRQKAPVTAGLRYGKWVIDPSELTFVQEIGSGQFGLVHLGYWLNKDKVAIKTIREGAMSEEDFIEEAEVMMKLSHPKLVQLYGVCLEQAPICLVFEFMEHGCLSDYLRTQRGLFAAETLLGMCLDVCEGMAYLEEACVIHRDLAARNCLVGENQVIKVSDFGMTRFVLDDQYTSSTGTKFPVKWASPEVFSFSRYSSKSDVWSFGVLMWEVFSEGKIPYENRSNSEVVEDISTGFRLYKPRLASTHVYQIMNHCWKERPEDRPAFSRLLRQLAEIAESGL", "details": "Riether et al., 2009, cited from earlier work"}, "[4]": {"test_system": "SKMEL 153 (ITKHI) melanoma cell line", "assay": "proliferation assay (cell counts)", "assay_type": "cell-based, Human", "details": "50 nM", "description": "(§3) FIG. 5A-5C. Effects of BI 10N inhibitor on proliferation and motility of melanoma cells. FIG. 5A) Cell motility assays were performed as described in FIG. 4A-4E; however, the inhibitor BI 10N was added to the media to decrease ITK kinase activity in parental cell lines instead of using the shRNA ITK knockdown cell lines. BI 10N was added to the media 24 hours prior to the start of the motility assay and the VivaView camera system was used to image cellular motility of the melanoma cells as described previously. FIG. 5B) The proliferation assays were completed as described in FIG. 4A-4E, substituting the BI 10N compound for the shRNA. Cells were trypsinized and counted using the Invitrogen Countess. Fifty thousand cells were placed into each well of a 6 well plate and BI 10N was added to the indicated concentrations. The cells were counted with the Invitrogen Countess at 3, 5, and 6 or 7 days after plating to assess the proliferation rates of the different cell lines in the presence of BI 10N. FIG. 5C) Both ITKHI (RPMI 8322) and ITKLO (PMWK) melanoma cell lines were grown in the presence of BI 10N (10-200 nM) in soft agar. In 24-well cell culture plates 2,500 cells per well were added to a 1.4% agarose solution. The agarose and cell solution was then poured on top of a solidified base agar. The cells were incubated at 37° C. for three to four weeks to ensure adequate growth before analysis. FIG. 5D) Cell cycle analysis of PMWK, VMM 39, and RPMI 8322 cells that have been treated with increasing concentrations of BI 10N. Following 3 days of BI 10N treatment, the cells were incubated with EdU for 3 hours and were subsequently assessed for 5-ethynyl-2′-deoxyuridine (EdU) incorporation rate and DNA content with FxCycle Violet. […]\n(§4) Human melanoma cell lines were plated onto 10 cm^2 6 well dishes at a density of 50,000 cells per well. […] Five hundred […] of media was added to the cell suspension, the cells were removed from the well and then counted using the Countess® Automated Cell Counter from Life Technologies (cat #C10227). […]"}, "[5]": {"test_system": "A375 (ITKINT) melanoma cell line", "assay": "proliferation assay (cell counts)", "assay_type": "cell-based, Human", "details": "50 nM", "description": "as §3, §4"}, "[6]": {"test_system": "SKMEL 131 (ITKLO) melanoma cell line", "assay": "proliferation assay (cell counts)", "assay_type": "cell-based, Human", "details": "inhibitor as high as 150 nM", "description": "as §3, §4"}}}
{"smiles": "CC(C)C(C)CNCc1ccc2c(c1)[nH]/c(=N\\C(=O)c1ccc(C3=CN=NC3)s1)n2CC(C)(C)O", "note": "(centres unmarked) [BI 10N]", "values": [{"measurement": "tumor growth", "setting": "[1]", "value": "significantly slowed"}, {"measurement": "tumor growth", "setting": "[2]", "value": "did not slow"}, {"measurement": "tumor growth", "setting": "[3]", "value": "significantly slowed"}, {"measurement": "EC50", "setting": "ITK; read-out: EC50 (selective inhibitor of ITK)", "value": 1, "unit": "nM"}, {"measurement": "IC50", "setting": "ITK; read-out: IC50 (inhibit ITK)", "value": 1, "unit": "nM"}, {"measurement": "increase in doubling time", "setting": "[4]", "value": "about 50%"}, {"measurement": "effect on proliferation", "setting": "[5]", "value": "decreased similarly to the ITKHI cell lines"}, {"measurement": "effect on doubling time", "setting": "[6]", "value": "did not increase their doubling time"}]}
